CCc1ccc(C(=O)c2ccccc2C(=O)O)cc1
Conditions	solubility (mole fraction)
in 1,4-dioxane, 288.88 K	0.0042
in 1,4-dioxane, 293.97 K	0.0066
in 1,4-dioxane, 298.46 K	0.0091
in 1,4-dioxane, 303.53 K	0.0121
in 1,4-dioxane, 308.09 K	0.0153
in 1,4-dioxane, 313.4 K	0.0195
in 1,4-dioxane, 319.15 K	0.024
in 1,4-dioxane, 322.54 K	0.0278
in 1,4-dioxane, 333.97 K	0.0353
in DMF, 281.2 K	0.343
in DMF, 286.49 K	0.367
in DMF, 290.63 K	0.382
in DMF, 296.42 K	0.42
in DMF, 305.65 K	0.451
in DMF, 314.34 K	0.47
in DMF, 325.55 K	0.507
in DMF, 335.75 K	0.532
in NMP, 280.1 K	0.163
in NMP, 284.15 K	0.175
in NMP, 293.44 K	0.209
in NMP, 303.76 K	0.26
in NMP, 313.15 K	0.315
in NMP, 322.85 K	0.396
in NMP, 334.3 K	0.484
in THF, 281.2 K	0.0064
in THF, 286.49 K	0.0085
in THF, 296.42 K	0.0125
in THF, 305.65 K	0.0178
in THF, 314.34 K	0.0246
in THF, 325.55 K	0.0377
in THF, 330.34 K	0.0442
in THF, 335.75 K	0.0541
in acetone, 280.25 K	0.0015
in acetone, 284.85 K	0.0022
in acetone, 290.87 K	0.0032
in acetone, 299.83 K	0.0054
in acetone, 310.39 K	0.0087
in acetone, 314.89 K	0.0107
in acetone, 319.6 K	0.0132
in acetone, 324.16 K	0.0156
in benzene, 283.05 K	0.0023
in benzene, 288.68 K	0.0037
in benzene, 293.52 K	0.0052
in benzene, 302.78 K	0.0109
in benzene, 313.15 K	0.0228
in benzene, 322.65 K	0.0408
in benzene, 328.38 K	0.0598
in benzene, 332.7 K	0.0793
in ethanol, 282.29 K	0.0733
in ethanol, 289.68 K	0.1
in ethanol, 294.91 K	0.123
in ethanol, 304.6 K	0.164
in ethanol, 314.3 K	0.214
in ethanol, 322.91 K	0.256
in ethanol, 328.65 K	0.289
in ethanol, 338.19 K	0.354
in ethanol, 342.82 K	0.388
in ethyl formate, 280.6 K	0.0014
in ethyl formate, 289.68 K	0.0027
in ethyl formate, 294.91 K	0.0038
in ethyl formate, 299.65 K	0.005
in ethyl formate, 304.6 K	0.006
in ethyl formate, 309.59 K	0.0075
in ethyl formate, 314.3 K	0.0087
in ethyl formate, 318.67 K	0.01
in ethyl formate, 322.91 K	0.0113
in isopropanol, 279.79 K	0.0023
in isopropanol, 284.74 K	0.0037
in isopropanol, 294.05 K	0.0085
in isopropanol, 303.99 K	0.0174
in isopropanol, 313.25 K	0.0305
in isopropanol, 323.37 K	0.0464
in isopropanol, 334.05 K	0.0631
in methanol, 279.9 K	0.0627
in methanol, 285.6 K	0.0827
in methanol, 290.81 K	0.101
in methanol, 295.45 K	0.118
in methanol, 305.56 K	0.164
in methanol, 314.4 K	0.202
in methanol, 323.8 K	0.248
in methanol, 328.69 K	0.273
in methanol, 333.53 K	0.3
in n-propanol, 279.55 K	0.0499
in n-propanol, 288.67 K	0.0777
in n-propanol, 299.23 K	0.121
in n-propanol, 308.86 K	0.168
in n-propanol, 318.93 K	0.223
in n-propanol, 328.62 K	0.279
in n-propanol, 338.45 K	0.344
in n-propanol, 343.15 K	0.387

From BigSolDB 2.1
